Test results: patent US20240306639A1, “USE OF FLUAZIFOP-P-BUTYL FOR INSECT CONTROL” (priority 2021, published 2024)

System: Bemisia tabaci (Silverleaf whitefly)
Experiment: Curative control of Bemisia tabaci second nymph stage (N2) on French beans, spray application
Format: in vivo
Source text: Examples 1 to 3 describe biological tests relating to the curative and preventative control of a series of insects with the spray application of dilutions of a formulation containing fluazifop-P-butyl as sole active ingredient (EC125 formulation (FUSILADE MAX®)) in combination with OCHIMAR adjuvant (Syngenta-alkyl ester of phosphoric acid (752 g/L EC formulation)) to bean or cabbage plants infested with Bemisia tabaci, Frankliniella occidentalis or Myzus persicae. The testing protocols and insect control effects are shown. • ai=active ingredient (fluazifop-P-butyl).
Curative control of Bemisia tabaci (Silverleaf whitefly), second nymph stage (N2), treated on French beans (BBCH12):
• All treatments including check were applied with 250 mL adjuvant (Ochima) per hectare (ha).

SMILES: CCCCOC(=O)[C@@H](C)Oc1ccc(Oc2ccc(C(F)(F)F)cn2)cc1 [fluazifop-P-butyl, butyl (2R)-2-[4-[5-(trifluoromethyl)pyridin-2-yl]oxyphenoxy]propanoate]
- efficacy against whiteflies compared to thrips or aphids (conclusion from the data in Tables 1 to 3): selective efficacy
- controlling whitefly (effect enhanced compared to aphids and thrips): highly effective
